Measurements published in ChEMBL document CHEMBL4507291 (2021).

Experiments:
[1] = molecular target: Activin receptor type-2A (Homo sapiens) (UniProt P27037)
[2] = molecular target: Activin receptor type-2B (Homo sapiens) (UniProt Q13705)
[3] = molecular target: Atypical kinase COQ8B, mitochondrial (Homo sapiens) (UniProt Q96D53)
[4] = molecular target: Casein kinase I isoform gamma-1 (Homo sapiens) (UniProt Q9HCP0)
[5] = test system: Epidermal growth factor receptor (Homo sapiens), P00533 [G719S]
[6] = molecular target: Ephrin type-A receptor 7 (Homo sapiens) (UniProt Q15375)
[7] = molecular target: Serine/threonine-protein kinase haspin (Homo sapiens) (UniProt Q8TF76)
[8] = molecular target: Interleukin-1 receptor-associated kinase 1 (Homo sapiens) (UniProt P51617)
Interleukin-1 receptor-associated kinase 1 (Homo sapiens), sequence (P51617 whole entry, looked up): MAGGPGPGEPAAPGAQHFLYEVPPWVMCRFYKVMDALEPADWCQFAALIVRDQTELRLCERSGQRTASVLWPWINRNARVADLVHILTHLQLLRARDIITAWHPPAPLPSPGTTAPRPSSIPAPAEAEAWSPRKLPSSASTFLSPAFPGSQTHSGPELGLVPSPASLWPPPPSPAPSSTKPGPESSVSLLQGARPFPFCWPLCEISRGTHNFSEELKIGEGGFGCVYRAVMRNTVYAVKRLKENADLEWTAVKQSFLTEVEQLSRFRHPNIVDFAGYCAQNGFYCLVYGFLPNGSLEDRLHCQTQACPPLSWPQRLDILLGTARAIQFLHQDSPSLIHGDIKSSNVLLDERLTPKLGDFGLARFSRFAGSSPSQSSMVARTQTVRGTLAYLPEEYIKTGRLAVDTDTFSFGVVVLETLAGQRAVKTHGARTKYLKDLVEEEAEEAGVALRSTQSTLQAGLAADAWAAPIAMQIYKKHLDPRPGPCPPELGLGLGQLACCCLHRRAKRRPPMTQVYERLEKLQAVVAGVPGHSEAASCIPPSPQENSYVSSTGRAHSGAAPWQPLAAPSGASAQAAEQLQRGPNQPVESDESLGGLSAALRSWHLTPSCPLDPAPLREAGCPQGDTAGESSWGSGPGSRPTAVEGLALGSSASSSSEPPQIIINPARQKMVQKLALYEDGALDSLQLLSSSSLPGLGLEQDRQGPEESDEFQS

[9] = molecular target: Tyrosine-protein kinase Lyn (Homo sapiens) (UniProt P07948)
Tyrosine-protein kinase Lyn (Homo sapiens), sequence (P07948 2-512 limits assumed): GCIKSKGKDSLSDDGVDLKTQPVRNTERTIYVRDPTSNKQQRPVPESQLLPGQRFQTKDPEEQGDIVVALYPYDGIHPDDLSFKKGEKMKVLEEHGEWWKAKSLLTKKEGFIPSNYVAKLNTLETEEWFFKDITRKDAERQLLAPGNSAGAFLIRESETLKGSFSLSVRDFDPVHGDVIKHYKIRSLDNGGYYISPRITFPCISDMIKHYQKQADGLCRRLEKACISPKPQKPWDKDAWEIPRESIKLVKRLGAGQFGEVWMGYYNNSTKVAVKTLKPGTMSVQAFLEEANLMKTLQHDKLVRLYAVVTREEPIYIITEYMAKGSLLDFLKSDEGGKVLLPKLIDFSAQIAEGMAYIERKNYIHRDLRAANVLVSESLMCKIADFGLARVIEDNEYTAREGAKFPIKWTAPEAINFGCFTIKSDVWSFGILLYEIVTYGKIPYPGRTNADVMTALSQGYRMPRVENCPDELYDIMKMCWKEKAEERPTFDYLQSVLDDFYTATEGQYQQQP

[10] = molecular target: Mitogen-activated protein kinase kinase kinase 1 (Homo sapiens) (UniProt Q13233)
[11] = molecular target: Mitogen-activated protein kinase kinase kinase kinase 5 (Homo sapiens) (UniProt Q9Y4K4)
[12] = molecular target: Phosphatidylinositol 4,5-bisphosphate 3-kinase catalytic subunit delta isoform (Homo sapiens) (UniProt O00329)
[13] = molecular target: Proto-oncogene tyrosine-protein kinase receptor Ret (Homo sapiens) (UniProt P07949)
Proto-oncogene tyrosine-protein kinase receptor Ret (Homo sapiens), sequence (P07949 whole entry): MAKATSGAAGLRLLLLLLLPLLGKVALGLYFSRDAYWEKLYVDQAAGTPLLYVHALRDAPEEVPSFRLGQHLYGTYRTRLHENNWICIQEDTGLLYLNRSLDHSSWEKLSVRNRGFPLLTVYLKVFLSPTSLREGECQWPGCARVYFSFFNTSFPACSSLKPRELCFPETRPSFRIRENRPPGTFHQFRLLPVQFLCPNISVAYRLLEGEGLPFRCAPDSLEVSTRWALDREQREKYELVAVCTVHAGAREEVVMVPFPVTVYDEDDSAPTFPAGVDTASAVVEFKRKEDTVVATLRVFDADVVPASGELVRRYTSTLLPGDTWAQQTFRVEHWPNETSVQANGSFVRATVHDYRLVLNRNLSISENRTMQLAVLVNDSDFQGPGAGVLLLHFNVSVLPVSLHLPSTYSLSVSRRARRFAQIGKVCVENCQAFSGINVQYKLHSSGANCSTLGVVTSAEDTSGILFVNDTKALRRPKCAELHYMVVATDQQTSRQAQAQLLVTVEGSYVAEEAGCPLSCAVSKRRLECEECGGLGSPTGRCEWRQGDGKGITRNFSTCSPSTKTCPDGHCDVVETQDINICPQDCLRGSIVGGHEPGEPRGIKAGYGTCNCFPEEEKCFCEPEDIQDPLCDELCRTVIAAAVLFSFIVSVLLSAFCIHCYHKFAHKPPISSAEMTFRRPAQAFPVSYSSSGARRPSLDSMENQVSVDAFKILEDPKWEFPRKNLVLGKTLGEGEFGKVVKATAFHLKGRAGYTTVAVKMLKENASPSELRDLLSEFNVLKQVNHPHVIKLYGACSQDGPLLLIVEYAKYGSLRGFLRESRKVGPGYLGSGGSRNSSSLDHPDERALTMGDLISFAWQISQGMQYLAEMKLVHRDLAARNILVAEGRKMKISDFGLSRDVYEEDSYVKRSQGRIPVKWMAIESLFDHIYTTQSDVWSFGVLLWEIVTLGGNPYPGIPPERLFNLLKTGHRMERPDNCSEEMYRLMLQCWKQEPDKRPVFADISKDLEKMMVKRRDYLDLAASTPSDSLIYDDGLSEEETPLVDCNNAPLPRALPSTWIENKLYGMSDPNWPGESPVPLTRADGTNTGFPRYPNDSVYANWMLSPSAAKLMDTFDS

[14] = test system: Proto-oncogene tyrosine-protein kinase receptor Ret (Homo sapiens), P07949 [M918T]
Proto-oncogene tyrosine-protein kinase receptor Ret (Homo sapiens), P07949 [M918T], sequence (P07949 whole entry M918T): as the sequence (P07949 whole entry) above, with M918T counted along it

[15] = molecular target: Dual serine/threonine and tyrosine protein kinase (Homo sapiens) (UniProt Q6XUX3)
[16] = molecular target: Uncharacterized serine/threonine-protein kinase SBK3 (Homo sapiens) (UniProt P0C264)
[17] = molecular target: T1, Serine/threonine-protein kinase Sgk3 (Homo sapiens) (UniProt Q96BR1)
T1 sequence (whole entry): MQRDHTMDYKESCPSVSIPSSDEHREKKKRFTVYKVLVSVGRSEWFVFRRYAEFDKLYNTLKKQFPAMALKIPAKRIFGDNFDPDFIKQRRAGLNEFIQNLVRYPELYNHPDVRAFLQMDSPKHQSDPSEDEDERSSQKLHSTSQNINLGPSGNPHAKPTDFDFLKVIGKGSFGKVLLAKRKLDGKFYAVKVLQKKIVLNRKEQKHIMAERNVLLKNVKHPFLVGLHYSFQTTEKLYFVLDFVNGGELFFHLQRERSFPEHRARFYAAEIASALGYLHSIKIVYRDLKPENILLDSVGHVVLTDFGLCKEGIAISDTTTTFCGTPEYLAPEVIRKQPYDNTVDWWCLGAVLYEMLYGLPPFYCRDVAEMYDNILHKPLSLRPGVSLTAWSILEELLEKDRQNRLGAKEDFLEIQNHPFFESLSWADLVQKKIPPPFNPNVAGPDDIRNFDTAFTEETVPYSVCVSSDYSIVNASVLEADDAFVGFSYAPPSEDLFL

[18] = molecular target: Serine/threonine-protein kinase SIK1 (Homo sapiens) (UniProt P57059)
Serine/threonine-protein kinase SIK1 (Homo sapiens), sequence (P57059 whole entry): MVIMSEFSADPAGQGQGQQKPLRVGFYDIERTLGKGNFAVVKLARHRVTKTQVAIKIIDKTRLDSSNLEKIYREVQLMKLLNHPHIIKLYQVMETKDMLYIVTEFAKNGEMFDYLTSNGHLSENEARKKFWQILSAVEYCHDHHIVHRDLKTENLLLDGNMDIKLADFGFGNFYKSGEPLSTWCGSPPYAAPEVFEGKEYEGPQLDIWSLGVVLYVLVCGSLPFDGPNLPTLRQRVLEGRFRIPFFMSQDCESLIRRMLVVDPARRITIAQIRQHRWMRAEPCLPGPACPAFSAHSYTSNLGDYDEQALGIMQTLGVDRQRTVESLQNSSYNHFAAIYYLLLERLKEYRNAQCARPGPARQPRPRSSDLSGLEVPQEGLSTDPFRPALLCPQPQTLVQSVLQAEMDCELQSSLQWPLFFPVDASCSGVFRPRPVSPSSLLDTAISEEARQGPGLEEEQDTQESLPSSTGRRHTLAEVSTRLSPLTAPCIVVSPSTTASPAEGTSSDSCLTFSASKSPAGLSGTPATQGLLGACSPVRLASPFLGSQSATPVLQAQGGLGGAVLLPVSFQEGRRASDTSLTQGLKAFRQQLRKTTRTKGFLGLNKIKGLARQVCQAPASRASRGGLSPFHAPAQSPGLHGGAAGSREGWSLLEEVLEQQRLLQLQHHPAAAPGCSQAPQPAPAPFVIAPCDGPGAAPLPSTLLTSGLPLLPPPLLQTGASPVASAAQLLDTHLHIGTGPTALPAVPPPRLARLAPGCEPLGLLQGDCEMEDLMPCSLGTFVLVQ

[19] = molecular target: SRSF protein kinase 2 (Homo sapiens) (UniProt P78362)
[20] = molecular target: T2, Tyrosine-protein kinase Tec (Homo sapiens) (UniProt P42680)
T2 sequence (whole entry): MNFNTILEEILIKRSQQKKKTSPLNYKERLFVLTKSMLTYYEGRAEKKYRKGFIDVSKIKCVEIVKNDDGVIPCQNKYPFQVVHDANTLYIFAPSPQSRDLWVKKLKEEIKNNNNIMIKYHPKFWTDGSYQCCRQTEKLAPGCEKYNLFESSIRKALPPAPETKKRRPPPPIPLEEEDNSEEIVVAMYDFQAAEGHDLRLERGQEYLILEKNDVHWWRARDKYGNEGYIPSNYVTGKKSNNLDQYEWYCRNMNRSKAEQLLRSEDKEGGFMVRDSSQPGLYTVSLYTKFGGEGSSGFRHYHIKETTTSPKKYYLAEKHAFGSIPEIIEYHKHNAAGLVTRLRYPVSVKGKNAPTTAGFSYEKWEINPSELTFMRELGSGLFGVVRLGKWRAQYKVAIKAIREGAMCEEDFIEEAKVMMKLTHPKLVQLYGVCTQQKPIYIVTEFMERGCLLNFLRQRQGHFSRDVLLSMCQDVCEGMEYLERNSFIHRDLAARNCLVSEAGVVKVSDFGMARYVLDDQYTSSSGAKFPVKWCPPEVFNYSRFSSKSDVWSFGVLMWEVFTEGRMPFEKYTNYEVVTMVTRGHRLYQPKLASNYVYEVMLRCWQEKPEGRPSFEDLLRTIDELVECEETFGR

[21] = molecular target: NT-3 growth factor receptor (Homo sapiens) (UniProt Q16288)
NT-3 growth factor receptor (Homo sapiens), sequence (Q16288 32-839 limits assumed): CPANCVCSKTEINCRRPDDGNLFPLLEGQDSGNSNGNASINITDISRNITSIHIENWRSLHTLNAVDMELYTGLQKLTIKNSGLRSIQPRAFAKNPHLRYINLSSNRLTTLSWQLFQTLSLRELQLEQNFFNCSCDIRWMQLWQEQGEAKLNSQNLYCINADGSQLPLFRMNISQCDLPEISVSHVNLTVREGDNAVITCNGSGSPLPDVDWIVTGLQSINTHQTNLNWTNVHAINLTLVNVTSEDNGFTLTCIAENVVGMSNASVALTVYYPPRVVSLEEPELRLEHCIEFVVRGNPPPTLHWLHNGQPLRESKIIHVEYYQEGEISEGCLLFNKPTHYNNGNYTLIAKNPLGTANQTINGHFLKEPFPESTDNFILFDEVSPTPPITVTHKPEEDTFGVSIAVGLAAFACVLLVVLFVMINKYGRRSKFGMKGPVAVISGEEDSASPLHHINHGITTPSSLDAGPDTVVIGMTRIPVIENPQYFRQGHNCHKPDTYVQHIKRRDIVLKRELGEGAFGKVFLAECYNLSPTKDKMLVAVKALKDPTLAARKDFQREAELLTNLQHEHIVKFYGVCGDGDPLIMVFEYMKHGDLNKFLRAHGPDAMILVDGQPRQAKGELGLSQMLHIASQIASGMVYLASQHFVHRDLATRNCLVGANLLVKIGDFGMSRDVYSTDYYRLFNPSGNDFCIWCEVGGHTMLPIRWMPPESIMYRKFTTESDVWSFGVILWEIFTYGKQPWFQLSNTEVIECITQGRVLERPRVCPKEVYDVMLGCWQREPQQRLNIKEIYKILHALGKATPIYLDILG

[22] = molecular target: T3, Tyrosine-protein kinase TXK (Homo sapiens) (UniProt P42681)
T3 sequence (whole entry): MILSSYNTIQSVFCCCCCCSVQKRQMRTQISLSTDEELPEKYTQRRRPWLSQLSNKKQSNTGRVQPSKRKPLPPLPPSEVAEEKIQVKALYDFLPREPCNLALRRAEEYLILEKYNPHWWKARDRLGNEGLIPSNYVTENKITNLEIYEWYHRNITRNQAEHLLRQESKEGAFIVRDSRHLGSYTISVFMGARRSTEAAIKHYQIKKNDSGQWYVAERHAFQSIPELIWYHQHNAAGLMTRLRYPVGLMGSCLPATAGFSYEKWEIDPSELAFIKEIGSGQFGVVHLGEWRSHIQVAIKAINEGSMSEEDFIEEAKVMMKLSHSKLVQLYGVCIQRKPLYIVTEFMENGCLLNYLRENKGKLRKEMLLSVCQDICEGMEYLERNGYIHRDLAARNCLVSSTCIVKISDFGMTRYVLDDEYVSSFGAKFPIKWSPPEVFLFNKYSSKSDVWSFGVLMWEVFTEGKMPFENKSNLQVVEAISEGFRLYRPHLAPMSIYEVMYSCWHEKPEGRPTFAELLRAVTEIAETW

[23] = molecular target: 5-hydroxytryptamine receptor 5A (Homo sapiens) (UniProt P47898); conditions: Compound concentration 10.0 uM
[24] = Compound concentration 100.0 nM
[25] = Compound concentration 1000.0 nM

Activin receptor type-2B (Homo sapiens), sequence (Q13705 whole entry): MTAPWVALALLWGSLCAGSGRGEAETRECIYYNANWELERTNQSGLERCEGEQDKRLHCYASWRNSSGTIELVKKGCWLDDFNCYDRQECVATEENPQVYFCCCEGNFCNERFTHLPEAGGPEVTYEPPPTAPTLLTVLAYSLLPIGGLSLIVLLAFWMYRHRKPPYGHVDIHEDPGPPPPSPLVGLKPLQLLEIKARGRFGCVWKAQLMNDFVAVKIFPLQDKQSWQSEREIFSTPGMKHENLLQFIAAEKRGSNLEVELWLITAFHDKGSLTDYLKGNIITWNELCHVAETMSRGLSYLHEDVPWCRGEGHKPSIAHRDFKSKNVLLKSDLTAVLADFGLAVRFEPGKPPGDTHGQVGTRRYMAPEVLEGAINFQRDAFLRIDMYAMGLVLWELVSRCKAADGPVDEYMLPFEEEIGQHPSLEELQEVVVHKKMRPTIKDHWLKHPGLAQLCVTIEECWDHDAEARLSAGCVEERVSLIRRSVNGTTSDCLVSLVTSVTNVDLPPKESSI
Activin receptor type-2A (Homo sapiens), sequence (P27037 whole entry): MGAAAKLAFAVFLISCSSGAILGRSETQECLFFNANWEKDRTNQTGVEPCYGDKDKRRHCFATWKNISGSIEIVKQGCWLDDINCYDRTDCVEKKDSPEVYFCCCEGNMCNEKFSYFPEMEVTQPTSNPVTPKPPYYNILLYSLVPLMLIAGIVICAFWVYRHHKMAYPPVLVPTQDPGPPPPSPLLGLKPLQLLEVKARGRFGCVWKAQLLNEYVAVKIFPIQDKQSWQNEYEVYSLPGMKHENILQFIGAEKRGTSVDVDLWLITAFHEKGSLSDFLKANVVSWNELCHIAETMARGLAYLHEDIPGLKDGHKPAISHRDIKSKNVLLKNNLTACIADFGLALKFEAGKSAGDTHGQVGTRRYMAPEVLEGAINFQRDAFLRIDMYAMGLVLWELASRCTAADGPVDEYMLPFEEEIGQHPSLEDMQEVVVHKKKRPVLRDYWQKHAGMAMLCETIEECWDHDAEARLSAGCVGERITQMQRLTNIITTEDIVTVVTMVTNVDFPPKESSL

C[C@@H]1CN(c2cc(-c3n[nH]c4ccc(OC5(C)CC5)cc34)ncn2)C[C@H](C)O1 [MLi-2]
inactive: residual activity [1, 24] 94% | residual activity [2, 24] 99% | residual activity [3, 24] 72% | residual activity [4, 24] 100% | residual activity [5, 24] 59% | residual activity [6, 24] 82% | residual activity [7, 24] 74% | residual activity [8, 24] 79% | residual activity [9, 24] 98% | residual activity [10, 24] 63% | residual activity [11, 24] 100% | residual activity [12, 24] 68% | residual activity [13, 24] 100% | residual activity [14, 24] 97% | residual activity [15, 24] 77% | residual activity [16, 24] 100% | residual activity [17, 24] 84% | residual activity [18, 24] 100% | residual activity [19, 24] 79% | residual activity [20, 24] 74% | residual activity [21, 24] 86% | residual activity [22, 24] 80% | inhibition [23] -4.76%

C[C@@H]1CN(c2cc(-c3nn(C)c4ccc(OC5(C)CC5)cc34)ncn2)C[C@H](C)O1 [MLi-2-NC]
inactive: residual activity [1, 25] 100% | residual activity [2, 25] 98% | residual activity [3, 25] 100% | residual activity [4, 25] 89% | residual activity [5, 25] 72% | residual activity [6, 25] 99% | residual activity [7, 25] 99% | residual activity [8, 25] 67% | residual activity [9, 25] 82% | residual activity [10, 25] 92% | residual activity [11, 25] 100% | residual activity [12, 25] 97% | residual activity [13, 25] 96% | residual activity [14, 25] 84% | residual activity [15, 25] 67% | residual activity [16, 25] 100% | residual activity [17, 25] 67% | residual activity [18, 25] 96% | residual activity [19, 25] 88% | residual activity [20, 25] 100% | residual activity [21, 25] 65% | residual activity [22, 25] 100% | inhibition [23] -6.76%
